According to US20260109732A1, “LIPID AMINES” (ModernaTX, Inc., priority 2021, published 2026):
Structures can show the parent of a compound that is named as a salt.

Assays:
HeLa cells = assay: CFTR Protein Expression Assay in HeLa Cells; type: cell-based, Human; settings: LNPs encapsulating CFTR mRNA, N=4 wells; 5 h serum-free then 24 h; immunofluorescence vs PBS control
Experimental: (§1) For HeLa studies evaluating CFTR protein expression, the intermediate nanoparticle formulation (1 mL, 0.415 mg mRNA) is mixed with a buffer containing 20 mM TRIS (pH 7.5), 0.9 mg/mL PEG-DMG-2K and lipid amine SA50 (647.1 nmol) at a volumetric ratio of 6:1 of nanoparticle:buffer. The resulting nanoparticle suspension undergoes concentration using a centrifugal filtration device (100 kDa molecular weight cut-off) and is diluted in running buffer (20 mM TRIS, 14.3 mM sodium acetate, and 32 g/L sucrose, pH 7.5) with a 300 mM NaCl solution to a final buffer matrix containing 70 mM NaCl.
Lipid nanoparticle compositions were prepared in a manner analogous to that in example 2. To evaluate LNP cellular uptake and protein expression In Vitro, HeLa cells from ATCC.org (ATCC CCL-2) are used. The cells are cultured in complete Minimum Essential Medium (MVEM) and are plated in 96 well Cell Carrier Ultra plate with PDL coated surface (PerkinElmer) prior to running an experiment.
Buffer control (PBS) and LNPs encapsulating cystic fibrosis transmembrane conductance regulator (CFTR) mRNA were dosed with MEM media in the absence of serum (N=4 replicate wells). LNP transfected cells were incubated for 5 h, followed by media removal and supplementation with complete MEM media. Cells were further incubated in complete MEM media overnight (24 h).
Following 24 hr incubation, the cells were fixed with PFA and processed for immunofluorescence (IF) using an anti-CFTR rabbit monoclonal antibody. Briefly, the cells were permeabilized with 0.5% TX-100 for 10 min, blocked with 3% bovine serum albumin (BSA)+PBST for 1 hr at room temperature, and incubated with primary anti-CFTR monoclonal antibody overnight at 4° C. Following primary antibody incubation, the cells were incubated with Alexa 488 conjugated secondary antibody for 30 mi and stained with DAPI and HCS CellMask Blue stain. Between different incubation steps the cells were either washed with PBS or PBST. Cells were imaged using Opera Phoenix spinning disk confocal microscope (PerkinElmer), and CFTR protein expression was detected using the 488 nm channel. The image analysis was performed in Harmony 4.9, with main analysis output being CFTR intensity per cell. The results shown in Table 3b show fold-change in CFTR signal intensity per cell compared to buffer (PBS) control (NA=not available).

[1] = Diameter and PDI from DLS measurements of mRNA nanoparticles with lipid amines; type: physicochemical; settings: CFTR mRNA nanoparticle with lipid amine
Experimental: (§2) Lipids are dissolved in ethanol at a concentration of 24 mg/mL and molar ratios of 49.0:11.2:39.3:0.5 (IL1:DSPC:cholesterol:PEG-DMG-2K) and mixed with the acidification buffer (45 mM acetate buffer at pH 4). The lipid solution and acidification buffer are mixed using a multi-inlet vortex mixer at a 3:7 volumetric ratio of lipid:buffer for mixer 1 and mixer 2 and a 1:3 volumetric ratio of lipid:buffer (25% ethanol) for mixer 3. After a 5 second residence time, the resulting nanoparticles are mixed with 55 mM sodium acetate at pH 5.6 at a volumetric ratio of 5:7 of nanoparticle:buffer. See Table 2a for mixing parameters. The resulting dilute nanoparticles are then buffer exchanged and concentrated using tangential flow filtration (TFF) into a final buffer containing 5 mM sodium acetate pH 5.0. Then a 70% sucrose solution in 5 mM acetate buffer at pH 5 is subsequently added.
(§3) The resulting nanoparticles at a lipid concentration of 7.33 mg/mL in 5 mM acetate (pH 5) and 75 g/L sucrose are mixed with mRNA (luciferease or CFTR) at a concentration of 0.625 mg/mL in 42.5 mM sodium acetate pH 5.0, with N:P of 4.93. The nanoparticle solution and nanoparticles are mixed using a multi-inlet vortex mixer at a 3:2 volumetric ratio of nanoparticle:mRNA. Once loaded with mRNA, these intermediate nanoparticles undergo a 300 second residence time prior addition of neutralization buffer containing 120 mM TRIS pH 8.12 at a volumetric ratio of 5:1 of nanoparticle:buffer.
(§4) For HeLa studies evaluating luciferase protein expression, PEG-DMG-2K dissolved in a 20 mM TRIS buffer (pH 7.5) is added to the neutralized intermediate nanoparticle solution at a ratio of 1:6, bringing the solution to the final molar ratios of IL1:DSPC:cholesterol:PEG-DMG-2K of 48.5:11.1:38.9:1.5%. This nanoparticle formulation is then modified with lipid amines. In a typical example, nanoparticle formulation at a concentration of 0.18 mg/mL mRNA and a 0.56 mL volume is modified with lipid amine SA50 (467.2 nmol) prepared in buffer containing 20 mM TRIS, 14.3 mM sodium acetate, 32 g/L sucrose and 140 mM NaCl-pH 7.5 at a volumetric ratio of 1:1 of nanoparticle:buffer.
as §1
(§5) Both resulting nanoparticle suspensions are filtered through a 0.8/0.2 μm capsule filter and filled into glass vials at an mRNA strength of about 0.1-1 mg/mLBliophysical data (Diameter and PDI from DLS measurements and Encapsualtion using Ribogreen assay) for both luciferase and CFTR mRNA nanoparticles with lipid amines is shown in Tables 2c and d, respectively.

[2] = Encapsulation of mRNA nanoparticles with lipid amines using Ribogreen assay; type: physicochemical; settings: CFTR mRNA nanoparticle with lipid amine
Experimental: as §2, §3, §4, §1, §5

SMILES	Average fold-change in CFTR signal intensity per cell compared to buffer control ± standard deviation (HeLa cells)	Diameter (nm) [1]	PDI [1]	% Encapsulation (Ribogreen) [2]
CC(C)CCC[C@@H](C)[C@H]1CC[C@H]2[C@@H]3CC=C4C[C@@H](OC(=O)CN(CCCCCCCCN)C(=O)[C@@H](N)CCCCN)CC[C@]4(C)[C@H]3CC[C@]12C.Cl.Cl.Cl [SA130, (3S,8S,9S,10R,13R,14S,17R)-10,13-dimethyl-17-((R)-6-methylheptan-2-yl)-2,3,4,7,8,9,10,11,12,13,14,15,16,17-tetradecahydro-1H-cyclopenta[a]phenanthren-3-yl N-(L-lysyl)-N-(8-aminooctyl)glycinate trihydrochloride]	1.0 ± 0 fold-change	85.7 nm	0.18	95.7%
CC(C)CCC[C@@H](C)[C@H]1CC[C@H]2[C@@H]3CC=C4C[C@@H](OC(=O)N(CCCCCCCCN(C)C)CCCN(C)C)CC[C@]4(C)[C@H]3CC[C@]12C [SA64, (3S,8S,9S,10R,13R,14S,17R)-10,13-dimethyl-17-((R)-6-methylheptan-2-yl)-2,3,4,7,8,9,10,11,12,13,14,15,16,17-tetradecahydro-1H-cyclopenta[a]phenanthren-3-yl (8-(dimethylamino)octyl)(3-(dimethylamino)propyl)carbamate]	9.1 ± 0.6 fold-change	67.8 nm	0.09	99.1%
CC(C)CCC[C@@H](C)[C@H]1CC[C@H]2[C@@H]3CC=C4C[C@@H](OC(=O)CCCC(=O)N(CCCN(C)C)CCCN(C)C)CC[C@]4(C)[C@H]3CC[C@]12C.Cl.Cl [SA51, (3S,8S,9S,10R,13R,14S,17R)-10,13-Dimethyl-17-((R)-6-methylheptan-2-yl)-2,3,4,7,8,9,10,11,12,13,14,15,16,17-tetradecahydro-1H-cyclopenta[a]phenanthren-3-yl 5-(bis(3-(dimethylamino)propyl)amino)-5-oxopentanoate dihydrochloride]	6.5 ± 0.4 fold-change	74.3 nm	0.15	98.4%
CC(C)CCC[C@@H](C)[C@H]1CC[C@H]2[C@@H]3CC=C4C[C@@H](OC(=O)N(CCCCOCCCN(C)C)CCCN(C)C)CC[C@]4(C)[C@H]3CC[C@]12C [SA67, (3S,8S,9S,10R,13R,14S,17R)-10,13-dimethyl-17-((R)-6-methylheptan-2-yl)-2,3,4,7,8,9,10,11,12,13,14,15,16,17-tetradecahydro-1H-cyclopenta[a]phenanthren-3-yl (4-(3-(dimethylamino)propoxy)butyl)(3-(dimethylamino)propyl)carbamate]	7.7 ± 0.7 fold-change	72.8 nm	0.10	99.2%
CC(C)CCC[C@@H](C)[C@H]1CC[C@H]2[C@@H]3CC=C4C[C@@H](OC(=O)CC(=O)N(CCCN(C)C)CCCN(C)C)CC[C@]4(C)[C@H]3CC[C@]12C.Cl.Cl [SA50, (3S,8S,9S,10R,13R,14S,17R)-10,13-Dimethyl-17-((R)-6-methylheptan-2-yl)-2,3,4,7,8,9,10,11,12,13,14,15,16,17-tetradecahydro-1H-cyclopenta[a]phenanthren-3-yl 3-(bis(3-(dimethylamino)propyl)amino)-3-oxopropanoate dihydrochloride]	7.1 ± 0.4 fold-change	77.1 nm	0.11	99.3%
CC(C)CCC[C@@H](C)[C@H]1CC[C@H]2[C@@H]3CC=C4C[C@@H](OC(=O)[C@H](C)N(CCCN)CCCCNCCCN)CC[C@]4(C)[C@H]3CC[C@]12C [SA73, (3S,8S,9S,10R,13R,14S,17R)-10,13-Dimethyl-17-((R)-6-methylheptan-2-yl)-2,3,4,7,8,9,10,11,12,13,14,15,16,17-tetradecahydro-1H-cyclopenta[a]phenanthren-3-yl N-(3-aminopropyl)-N-(4-((3-aminopropyl)amino)butyl)alaninate trihydrochloride]	9.4 ± 0.6 fold-change	92.8 nm	0.16	100%
CC(C)CCC[C@@H](C)[C@H]1CC[C@H]2[C@@H]3CC=C4C[C@@H](OC(=O)CCCC(=O)N(CCCN)CCCCNCCCN)CC[C@]4(C)[C@H]3CC[C@]12C.Cl.Cl.Cl [SA58, (3S,8S,9S,10R,13R,14S,17R)-10,13-Dimethyl-17-((R)-6-methylheptan-2-yl)-2,3,4,7,8,9,10,11,12,13,14,15,16,17-tetradecahydro-1H-cyclopenta[a]phenanthren-3-yl 5-((3-aminopropyl)(4-((3-aminopropyl)amino)butyl)amino)-5-oxopentanoate trihydrochloride]	4.5 ± 0.3 fold-change	71.6 nm	0.10	99.6%
CC(C)CCC[C@@H](C)[C@H]1CC[C@H]2[C@@H]3CC=C4C[C@@H](OC(=O)N(CCCCN(C)CCCN(C)C)CCCN(C)C)CC[C@]4(C)[C@H]3CC[C@]12C [SA68, (3S,8S,9S,10R,13R,14S,17R)-10,13-dimethyl-17-((R)-6-methylheptan-2-yl)-2,3,4,7,8,9,10,11,12,13,14,15,16,17-tetradecahydro-1H-cyclopenta[a]phenanthren-3-yl (3-(dimethylamino)propyl)(4-((3-(dimethylamino)propyl)(methyl)amino)butyl)carbamate]	8.9 ± 0.4 fold-change	74.6 nm	0.12	99.2%
CC(C)CCC[C@@H](C)[C@H]1CC[C@H]2[C@@H]3CC=C4C[C@@H](OC(=O)CN(CCCN)CCCCNCCCN)CC[C@]4(C)[C@H]3CC[C@]12C (stereo in doubt) [SA65, ((3S,8S,9S,10R,13R,14S,17R)-10,13-dimethyl-17-((R)-6-methylheptan-2-yl)-2,3,4,7,8,9,10,11,12,13,14,15,16,17-tetradecahydro-1H-cyclopenta[a]phenanthren-3-yl N-(3-aminopropyl)-N-(4-((3-aminopropyl)amino)butyl)glycinatetetrahydrochloride]	5.9 ± 0.5 fold-change	78.0 nm	0.14	99.6%
